These results are taken from patent US20260250246A1, “PSILOCYBIN ANALOGS, SALTS, COMPOSITIONS, AND METHODS OF USE” (priority 2021, published 2026).

As usually defined, the Cmax is the maximum level reached in the sampled fluid or tissue. The term Tmax denotes the time from dosing to the highest level.

Structures are written as SMILES. Values joined by “and” are separate entries in the source; they are usually repeats but may differ in a detail not shown here. Identical values can stand only once. Counter-ions that a name gives are not always drawn.

The nature of data set [1]: Pharmacokinetics of psilocin-d10 and psilocybin in male beagle dog, powder in capsule (PIC) or orally disintegrating tablet (ODT).
A short description of data set [2]: Psilocin-d0/psilocin-d10 and psilocybin PK comparative study in rats (oral gavage, intravenous bolus; plasma and brain). The settings on record: for oral bioavailability: co-dosing of PI-d0 and PI-d10.
Data set [3] in a line: Psilocin-d10 pharmacokinetics study in dogs following oral gavage and intravenous (bolus) administrations.
Data set [4] in a line: Stability of amorphous form from melt/crash cooling on standing. The data set is classed as physicochemical. As to conditions: amorphous free base.
Data set [5] in a line: Anti-solvent precipitation: DMF or DMSO solution added to water. It is filed as physicochemical. The procedure:
The following techniques were tried but were not successful in the preparation of amorphous material: • i) Crash cooling freeze drying. […] Instead, solutions were formed which became dark within 4 hours, signifying degradation

The nature of data set [6]: Maturation in 12 different solvents with thermal cycling (XRPD). As to conditions: thermal cycling room temperature/50° C., 3 days. The data set is classed as physicochemical. The procedure:
The resulting slurries were subjected to maturation with thermal cycling between room temperature and 50° C. (4 hours at each condition) for 3 days. Solids were then analysed by XRPD.

Data set [7] in a line: Stability studies with cyclodextrin complexes. The settings on record: 40° C., with or without metal salts.
Data set [8] is described as follows: Stability studies in citric acid solution.
Data set [9] can be described thus: Stability studies in acid solutions (PI salt solutions). It is filed as physicochemical. As to conditions: 40° C. The source says:
Ascorbic acid (AsA), acetic acid (AcA), tartaric acid (TA), fumaric acid (FA), citric acid (CA), malic acid (MA), benzenesulfonic acid (BSA), stearic acid (SA), sodium citrate dihydrate, monosodium phosphate hydrate, disodium phosphate were purchased from Sigma Aldrich. Aluminum (III) chloride (AlCl3) and iron (III) chloride (FeCl3) were purchased from Sigma Aldrich. Antioxidants, i.e., ethylenediaminetetraacetic acid (EDTA), ascorbic acid (AsA), L-cysteine (Cys), sodium metabisulfite (NamBiSO3) and propyl gallate (PG) were purchased from Sigma Aldrich. Hydroxypropyl-β-cyclodextrin (CAVASOL® W7 HP, CAVITRON® W7 HP7) and methyl-β-cyclodextrin (CAVASOL® W7 M) were provided by DuPont.
The following chromatographic conditions were used:
Diluent. The diluent used in the below studies was prepared as follows: 100 mL of acetonitrile (ACN) was mixed with 800 mL of water and 100 mL of 1.0 M citric acid and mixed well to prepare 1 L of diluent.
The stability of psilocin in 0.1 M solutions of various acids was tested.
Test solutions: To prepare the test solutions, 0.1 M solutions of AsA, AcA, TA, FA, CA, MA, BSA, and SA were prepared in DI water.

The nature of data set [10]: Stability studies with antioxidants. The settings on record: EDTA, ascorbic acid, L-cysteine, sodium metabisulfite, propyl gallate; 40° C.
Data set [11] can be described thus: Long term stability studies with citric acid and sodium citrate buffer. The data set is classed as physicochemical. As for the experimental part: The long-term stability (up to 25 days) of psilocin in a citric acid solution (0.1 M, pH 1.60) and a sodium citrate buffer (0.1 M, pH 6.01) at 4° C. and 23° C. was assessed.
(§1) Preparation of 0.1 M sodium citrate buffer (pH 6.01): 2.427 g of sodium citrate dihydrate and 0.336 g of citric acid were dissolved in 80 ml of DI water. The pH was adjusted to 6.0 using a 1 M NaOH solution. The final volume was adjusted to 100 ml.
Test solutions: Psilocin (1 mg/ml) was mixed with (i) sodium citrate buffer (0.1 M, pH 6.01) and (ii) citric acid solution (0.1 M, pH 1.60) in 1:1 v/v. The samples were stored at 4° C. and 23° C., and aliquots were sampled at designated timepoints (days 0, 7, 17, and 25).

Data set [12] can be described thus: Stability studies in sodium citrate buffer. It is filed as physicochemical. As for the experimental part:
as §1

Data set [13] is described as follows: Observation of freeze dried salt. The data set is classed as physicochemical. The settings on record: freeze dried from 1,4-dioxane.
Where [14] appears, read: ODT, psilocin-d10 dosed 5 mg (nominal 0.5 mg/kg), analyte psilocin-d10, male beagle dog plasma, Mean.
Setting [15] is: PIC, psilocin-d10 dosed 5 mg (nominal 0.5 mg/kg), analyte psilocin-d10, male beagle dog plasma, Mean.
Setting [16] is: female dog plasma, single intravenous (bolus) 0.20 mg/kg, Mean, N=3.
[17] abbreviates: female dog plasma, single intravenous (bolus) 0.20 mg/kg, Median, N=3.
The mark [18] stands for this setting: female dog plasma, single intravenous (bolus) 0.20 mg/kg, individual animals 60F, 61F, 723F, listed as Psilocin-d10, 0.2 mg/kg.
Setting [19] is: female dog plasma, single oral (gavage) 1.00 mg/kg, Median, N=3.
[20] abbreviates: female dog plasma, single oral (gavage) 1.00 mg/kg, individual animals 60F, 61F, 723F, listed as Psilocin-d10, 1 mg/kg.

In data set [1] (setting [14]), `[2H]C([2H])([2H])N(C([2H])([2H])[2H])C([2H])([2H])C([2H])([2H])c1c[nH]c2cccc(O)c12` [Compound I-3, 3-(2-(bis(methyl-d3)amino)ethyl-1,1,2,2-d4)-1H-indol-4-ol] gave an AUCINF_obs of 213 ng·h/mL, an AUClast of 199 ng·h/mL, a Cl_F_obs of 40.33 mL/min/kg and a Cmax of 67.2 ng/mL. For the same compound, in data set [1] (setting [14]), the Tmax came out at 0.542 h and the Vz_F_obs was 6.9 L/kg. Besides, in data set [1] (setting [15]), the AUClast came to 181 ng·h/mL, the Cl_F_obs worked out at 43.5 mL/min/kg, the Cmax turned out to be 60 ng/mL and the T½ came out at 2.01 h. Further, the Vz_F_obs in data set [1] (setting [15]) is 7.6 L/kg. The “psilocin-d10 exposure compared to psilocin exposure after administration of psilocybin” value in data set [1] (dogs, independent of formulation) was “twice as high”. In data set [2] (rats), the oral bioavailability came out at 12.1%. The “time of last detectable plasma level” value in [3] (dogs, oral administration) was 9 h. In addition, in data set [3] (setting [16]), the Cmax stood at 45.8 ng/mL and the t1/2 is reported as 1.37 h. Also, in data set [3] (setting [17]), the AUC0-inf turned out to be 95.8 ng·h/mL, the AUC0-t stood at 80.7 ng·h/mL, the CL was 34.83 mL/min/kg and the Cmax worked out at 45.9 ng/mL. In data set [3] (setting [17]), the “DN Cmax” value is given as 230 (ng/mL)/(mg/kg) and the Vss was 3.96 L/kg. In data set [3] (setting [18]), the AUC0-inf is 95.8 ng·h/mL; the AUC0-t came out at 80.7 ng·h/mL; the CL amounted to 34.83 mL/min/kg; the Cmax is 45.9 ng/mL and 43.9 ng/mL. For the same compound, in data set [3] (setting [18]), the “DN AUC0-inf” value is given as 500 (h*ng/mL)/(mg/kg); the “DN Cmax” value is 230 (ng/mL)/(mg/kg) and 220 (ng/mL)/(mg/kg); the Vss worked out at 3.96 L/kg. In [3] (setting [19]), this compound gave an AUC0-inf of 414 ng·h/mL, an AUC0-t of 399 ng·h/mL and a t1/2 of 1.80 h. For the same compound, in data set [3] (setting [20]), the AUC0-inf was 426 ng·h/mL and 414 ng·h/mL; the AUC0-t was 404 ng·h/mL and 399 ng·h/mL; the Cmax was 126 ng/mL; the t1/2 is 1.80 h and 1.82 h and 1.69 h. In data set [4], the “stability of amorphous form” value was “not stable for prolonged periods”. Besides, in data set [5], the “time until solutions became dark, signifying degradation” value is no more than 4 h.

`[2H]C([2H])([2H])N(C([2H])([2H])[2H])C([2H])([2H])C([2H])([2H])c1c[nH]c2cccc(O)c12` [Compound I-3j, Benzoate Salt of 3-(2-(bis(methyl-d3)amino)ethyl-1,1,2,2-d4)-1H-indol-4-ol]: the “crystalline form by XRPD after maturation in 12 solvents” value (“crystalline form by XRPD” below) in [6] was “retained their initial crystalline form”.

As to `CN(C)CCc1c[nH]c2cccc(O)c12` [Compound I-7, 3-(2-(dimethylamino)ethyl)-1H-indol-4-ol], the stability with cyclodextrins entry in data set [7] is given as “did not impart stability”. Further, in [8] (small quantities of citric acid, 40° C., 24 hour), the “psilocin stabilization at 24 hour time point” value was 30%. Further, the “solution stability (% psilocin remaining)” value is “greatly enhanced the stability” in [8] (small quantities of citric acid, pH 3.2, 4° C. and 23° C.); “nearly all psilocin being degraded” in data set [8] (without citric acid, 4, 23 and 40° C., by 18 hour time point); “significant psilocin degradation” in [8] (without citric acid, with Fe3+ and Al3+ metal ions); “excellent stability” in data set [9] (0.1 M acid solutions, with or without metal salts, up to 24); “nearly all psilocin being degraded” in [9] (without acid, within 24 hours); “significant psilocin degradation” in data set [9] (without acid, with Fe3+ and Al3+ metal ions). For the same compound, the “solution stability (% psilocin remaining)” value in data set [12] (0.1 M sodium citrate buffer, 4° C. and room temperature) was “greatly stabilized”; in data set [12] (non-citrate buffered, with Fe3+ and Al3+ metal ions), “significant psilocin degradation”; in [12] (without sodium citrate buffer, 4, 23, 40° C., by 18 hour time point), “nearly all psilocin being degraded”. In [2] (rats), the oral bioavailability was 7.52%. In addition, in [10], the “stability against metal salts with antioxidants” value was “none of the antioxidants tested were able to provide stability”. Also, the long-term solution stability result in [11] (citric acid 0.1 M, pH 1.60, 23° C. and 4° C., 25 days) was “only minimal degradation”; in [11] (sodium citrate buffer pH 6.01, room temperature) it was “degradation of psilocin began within a week”. In addition, the “time psilocin remained stable” value in [11] (sodium citrate buffer pH 6.01, cold storage 4° C.) is “up to 17 days”. The degradation of psilocin in [12] (0.1 M sodium citrate buffer, 40° C.) was 10-15%. In data set [12] (in 0.1 M citrate buffer), the “effect of metal salts (Fe3+ and Al3+) on psilocin” value was “no detrimental effects”.

For the compound `CN(C)CCc1c[nH]c2cccc(O)c12` [Compound I-7a, Benzenesulfonate Salt of 3-(2-(dimethylamino)ethyl)-1H-indol-4-ol], in [6], the “crystalline form by XRPD” value is on record as “retained their initial crystalline form”.

As for `CN(C)CCc1c[nH]c2cccc(O)c12` [Compound I-7b, Tartrate Salt of 3-(2-(dimethylamino)ethyl)-1H-indol-4-ol], the “crystalline form by XRPD” value in data set [6] was “retained their initial crystalline form”.

As for `CN(C)CCc1c[nH]c2cccc(O)c12` [Compound I-7c, Hemi-Fumarate Salt of 3-(2-(dimethylamino)ethyl)-1H-indol-4-ol], the “crystalline form by XRPD” value in [6] is “complex polymorphism”.

As for `CN(C)CCc1c[nH]c2cccc(O)c12` [Compound I-7e, Citrate Salt of 3-(2-(dimethylamino)ethyl)-1H-indol-4-ol], in data set [13], the “hygroscopicity of isolated solid” value is reported as “hygroscopic”.

On to `CN(C)CCc1c[nH]c2cccc(O)c12` [Compound I-7j, Benzoate Salt of 3-(2-(dimethylamino)ethyl)-1H-indol-4-ol], for which, in [6], the “crystalline form by XRPD” value was “retained their initial crystalline form”.

Consider `CN(C)CCc1c[nH]c2cccc(OP(=O)(O)O)c12` [psilocybin], for which the time of peak concentration (Tmax) entry in [2] (rat plasma, Group 3: psilocybin intravenous (bolus) 2.8 mg/kg, label = analyte, IAD = immediately after dosing) was “IAD”. Moreover, the “brain concentrations compared to plasma” value in data set [2] (rats, after IV dosing) was “brain concentrations are low”.
